Measured values taken from publication PMC7377239, “Cardiovascular Effects of Polychlorinated Biphenyls and Their Major Metabolites” (Environmental Health Perspectives, 2020).
Read-outs that look alike come from different tables or passages of the source.

Test system: iCell cardiomyocytes (human iPSC-derived cardiomyocytes)
Experiment: Intracellular Ca2+ flux / beating parameters in iCell cardiomyocytes (FLIPR tetra), 90 min or 24 h
Format: cell-based
Settings: Homo sapiens, Cardiomyocyte, 0.00 µM = 100.00; for activity at 0.1 µM: 0.10 µM
Outline: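 PODs were defined as the concentration crossing one SD of the vehicle-control means (0.5% DMSO) on four-parameter logistic fits of Ca2+ trace metrics (peak height, frequency, peak-spacing CV, decay/rise ratio). Traces came from 100 s, 8 Hz FLIPR reads at 37 °C on calcium-dye-loaded iCell cardiomyocytes. Before reading, cells were treated for 90 min or 24 h from 5× chemical plates spanning 0.05–500 µM, in triplicate.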

[1] = 1.5 h, read-out: cm.amp.avg.90min
[2] = 1.5 h, read-out: cm.amp.cv.90min
[3] = 1.5 h, read-out: cm.decay.rise.90min
[4] = 1.5 h, read-out: cm.spacing.cv.90min
[5] = 24 h, read-out: cm.amp.avg.24hrs
[6] = 24 h, read-out: cm.amp.cv.24hrs
[7] = 24 h, read-out: cm.decay.rise.24hrs
[8] = 24 h, read-out: cm.spacing.cv.24hrs

Structure (SMILES): O=C1C=CC(=O)C(c2ccc(Cl)cc2)=C1 [4-Cl-BQ, 2-(4-Chlorophenyl)benzo-2,5-quinone]
- activity at 0.01 µM [1]: 91.7%
- activity at 0.01 µM [2]: 113%
- activity at 0.01 µM (1.5 h, read-out: cm.bpm.90min): 103%
- activity at 0.01 µM [3]: 99.5%
- activity at 0.01 µM [4]: 135%
- activity at 0.1 µM [1]: 92.1%
- activity at 0.1 µM [2]: 88.6%
- activity at 0.1 µM (1.5 h, read-out: cm.bpm.90min): 100%
- activity at 0.1 µM [3]: 96.6%
- activity at 0.1 µM [4]: 99.9%
- activity at 1 µM [1]: 92.1%
- activity at 1 µM [2]: 105%
- activity at 1 µM (1.5 h, read-out: cm.bpm.90min): 95.3%
- activity at 1 µM [3]: 107%
- activity at 1 µM [4]: 104%
- activity at 10 µM [1]: 101%
- activity at 10 µM [2]: 118%
- activity at 10 µM (1.5 h, read-out: cm.bpm.90min): 124%
- activity at 10 µM [3]: 104%
- activity at 10 µM [4]: 225%
- activity at 100 µM [1]: 0%
- activity at 100 µM [2]: 0%
- activity at 100 µM (1.5 h, read-out: cm.bpm.90min): 0%
- activity at 100 µM [3]: 0%
- activity at 100 µM [4]: 0%
- activity at 0.01 µM [5]: 112%
- activity at 0.01 µM [6]: 125%
- activity at 0.01 µM (24 h, read-out: cm.bpm.24hrs): 101%
- activity at 0.01 µM [7]: 85.3%
- activity at 0.01 µM [8]: 104%
- activity at 0.1 µM [5]: 97.3%
- activity at 0.1 µM [6]: 130%
- activity at 0.1 µM (24 h, read-out: cm.bpm.24hrs): 100%
- activity at 0.1 µM [7]: 96.8%
- activity at 0.1 µM [8]: 92.5%
- activity at 1 µM [5]: 105%
- activity at 1 µM [6]: 96.8%
- activity at 1 µM (24 h, read-out: cm.bpm.24hrs): 93.6%
- activity at 1 µM [7]: 103%
- activity at 1 µM [8]: 98.4%
- activity at 10 µM [5]: 45.5%
- activity at 10 µM [6]: 56.6%
- activity at 10 µM (24 h, read-out: cm.bpm.24hrs): 64.9%
- activity at 10 µM [7]: 72.1%
- activity at 10 µM [8]: 63.9%
- activity at 100 µM [5]: 0%
- activity at 100 µM [6]: 0%
- activity at 100 µM (24 h, read-out: cm.bpm.24hrs): 0%
- activity at 100 µM [7]: 0%
- activity at 100 µM [8]: 0%

Structure (SMILES): Oc1ccc(-c2cccc(Cl)c2)cc1Cl [4-OH PCB11]
- activity at 0.01 µM [1]: 107%
- activity at 0.01 µM [2]: 101%
- activity at 0.01 µM (1.5 h, read-out: cm.bpm.90min): 107%
- activity at 0.01 µM [3]: 99.5%
- activity at 0.01 µM [4]: 111%
- activity at 0.1 µM [1]: 96%
- activity at 0.1 µM [2]: 97.9%
- activity at 0.1 µM (1.5 h, read-out: cm.bpm.90min): 102%
- activity at 0.1 µM [3]: 94.9%
- activity at 0.1 µM [4]: 90.9%
- activity at 1 µM [1]: 103%
- activity at 1 µM [2]: 91.8%
- activity at 1 µM (1.5 h, read-out: cm.bpm.90min): 99.1%
- activity at 1 µM [3]: 96.5%
- activity at 1 µM [4]: 95.9%
- activity at 10 µM [1]: 89.2%
- activity at 10 µM [2]: 99%
- activity at 10 µM (1.5 h, read-out: cm.bpm.90min): 104%
- activity at 10 µM [3]: 94.9%
- activity at 10 µM [4]: 104%
- activity at 100 µM [1]: 0%
- activity at 100 µM [2]: 0%
- activity at 100 µM (1.5 h, read-out: cm.bpm.90min): 0%
- activity at 100 µM [3]: 0%
- activity at 100 µM [4]: 0%
- activity at 0.01 µM [5]: 93.8%
- activity at 0.01 µM [6]: 28.6%
- activity at 0.01 µM (24 h, read-out: cm.bpm.24hrs): 46.8%
- activity at 0.01 µM [7]: 48.9%
- activity at 0.01 µM [8]: 46.2%
- activity at 0.1 µM [5]: 110%
- activity at 0.1 µM [6]: 104%
- activity at 0.1 µM (24 h, read-out: cm.bpm.24hrs): 92.6%
- activity at 0.1 µM [7]: 109%
- activity at 0.1 µM [8]: 104%
- activity at 1 µM [5]: 92.2%
- activity at 1 µM [6]: 98.4%
- activity at 1 µM (24 h, read-out: cm.bpm.24hrs): 89.7%
- activity at 1 µM [7]: 99.3%
- activity at 1 µM [8]: 89.5%
- activity at 10 µM [5]: 135%
- activity at 10 µM [6]: 67.1%
- activity at 10 µM (24 h, read-out: cm.bpm.24hrs): 93.6%
- activity at 10 µM [7]: 106%
- activity at 10 µM [8]: 91.5%
- activity at 100 µM [5]: 0%
- activity at 100 µM [6]: 0%
- activity at 100 µM (24 h, read-out: cm.bpm.24hrs): 0%
- activity at 100 µM [7]: 0%
- activity at 100 µM [8]: 0%
